# Results published in patent publication US20230064983A1 (priority 2020, published 2023).
# Like-named read-outs stand apart in the source and are kept apart here.
# Tests used:
# [1] = target: T1, EGFR with insertion SVD between D770 and N771 (mutEGFR D770_N771insSVD) (Homo sapiens, UniProt P00533, DUP768-770); assay: Exon20-Mutant-EGFR(D770_N771insSVD) kinase assay (TR-FRET); assay type: biochemical; details: 2 mM ATP, Table 2
# T1 construct: amino acids R669 to A1210; made in house; host or cells: Sf9 insect cells (baculovirus)
# [2] = target: T2, Bub1 (Homo sapiens, UniProt O43683); assay: Bub1 high ATP kinase assay (TR-FRET); assay type: biochemical; details: 2 mM ATP, Table 3
# T2 construct: catalytic domain of human Bub1 (amino acids 704-1085); His6 (N); made in house; host or cells: insect cells (Hi5)
# Text: Bub1 high ATP Kinase Assay
# Bub1-inhibitory activity of compounds of the present invention at a high ATP concentration was quantified employing the Bub1 TR-FRET high ATP kinase assay as described in the following paragraphs.
# N-terminally His6-tagged recombinant catalytic domain of human Bub1 (amino acids 704-1085), expressed in insect cells (Hi5) and purified by Ni-NTA affinity chromatography and subsequent size exclusion chromatography, was used as enzyme. As substrate for the kinase reaction the biotinylated peptide biotin-Ahx-[…] (C-terminus in amid form) was used which can be purchased e.g. form the company Biosyntan (Berlin, Germany).
# Then the kinase reaction was started by the addition of 2 μl of a solution of Bub1 in assay buffer and the resulting mixture was incubated for a reaction time of 60 min at 22° C. The concentration of Bub1 was adjusted depending of the activity of the enzyme lot and was chosen appropriate to have the assay in the linear range, a typical concentration is about 200 ng/ml. The reaction was stopped by the addition of 3 μl of a solution of TR-FRET detection reagents (0.167 μM streptavidine-XL665 [Cisbio Bioassays, Codolet, France] and 1.67 nM anti-phosho-Serine antibody [Merck Millipore, cat. #35-002] and 0.67 nM LANCE EU-W1024 labeled anti-mouse IgG antibody [Perkin-Elmer, product no. AD0077, as an alternative a Terbium-cryptate-labeled anti-mouse IgG antibody from Cisbio Bioassays can be used]) in an aqueous EDTA-solution (83.3 mM EDTA, 0.2% (w/v) bovine serum albumin in 100 mM HEPES pH 7.5).
# The resulting mixture was incubated 1 h at 22° C. to allow the formation of complex between the phosphorylated biotinylated peptide and the detection reagents. Subsequently the amount of phosphorylated substrate was evaluated by measurement of the resonance energy transfer from the Eu-chelate to the streptavidine-XL. Therefore, the fluorescence emissions at 620 nm and 665 nm after excitation at 350 nm was measured in a TR-FRET reader, e.g. a Pherastar or Pherastar FS (both from BMG Labtechnologies, Offenburg, Germany) or a Viewlux (Perkin-Elmer). The ratio of the emissions at 665 nm and at 622 nm was taken as the measure for the amount of phosphorylated substrate.
# [3] = target: Ba/F3-EGFR-D770_N771insSVD cells (Homo sapiens, UniProt P00533, DUP768-770, cells depend on it); assay: Ba/F3 cell survival assay, EGFR D770_N771insSVD; assay type: cell-based; details: Cell Titer-Glo, 48 h, without IL-3; Table 4; read-out: BA/F3 (insSVD) IC50
# [4] = target: Ba/F3-EGFR-WT cells (Homo sapiens, UniProt P00533); assay: Ba/F3 cell survival assay, wild type EGFR; assay type: cell-based; details: Cell Titer-Glo, 48 h, with 10 ng/mL EGF; Table 4; read-out: BA/F3 (wild type) IC50
# [5] = Bub1 high ATP (2 mM) IC50, TR-FRET
# T1 sequence (P00533 other isoform, or with tags, fused parts or gaps DUP768-770): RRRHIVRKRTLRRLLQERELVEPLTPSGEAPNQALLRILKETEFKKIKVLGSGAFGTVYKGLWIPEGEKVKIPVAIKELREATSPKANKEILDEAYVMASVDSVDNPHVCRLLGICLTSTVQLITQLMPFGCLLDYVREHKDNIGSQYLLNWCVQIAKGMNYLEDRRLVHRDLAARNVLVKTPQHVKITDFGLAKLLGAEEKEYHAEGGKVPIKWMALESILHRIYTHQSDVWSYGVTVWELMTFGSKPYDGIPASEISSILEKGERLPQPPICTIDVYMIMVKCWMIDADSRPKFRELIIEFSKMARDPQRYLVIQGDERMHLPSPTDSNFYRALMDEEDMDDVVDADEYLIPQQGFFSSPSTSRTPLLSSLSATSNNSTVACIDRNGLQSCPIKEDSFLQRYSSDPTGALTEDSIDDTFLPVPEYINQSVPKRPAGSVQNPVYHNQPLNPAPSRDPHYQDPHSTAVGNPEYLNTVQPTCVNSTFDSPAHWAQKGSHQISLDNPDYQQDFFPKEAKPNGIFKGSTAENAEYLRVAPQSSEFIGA
# T2 sequence (O43683 704-1085): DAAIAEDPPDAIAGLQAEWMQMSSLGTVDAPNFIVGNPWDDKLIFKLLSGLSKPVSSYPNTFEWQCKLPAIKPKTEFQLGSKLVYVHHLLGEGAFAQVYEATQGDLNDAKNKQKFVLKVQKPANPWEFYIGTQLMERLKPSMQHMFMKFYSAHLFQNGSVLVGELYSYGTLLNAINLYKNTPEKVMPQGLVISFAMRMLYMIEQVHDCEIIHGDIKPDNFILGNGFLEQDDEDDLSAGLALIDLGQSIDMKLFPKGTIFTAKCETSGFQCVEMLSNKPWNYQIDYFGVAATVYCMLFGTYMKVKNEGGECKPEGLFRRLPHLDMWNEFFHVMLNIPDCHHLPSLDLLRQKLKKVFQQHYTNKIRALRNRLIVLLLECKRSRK
# Sequence of Ba/F3-EGFR-D770_N771insSVD cells (P00533 with tags, fused parts or gaps DUP768-770): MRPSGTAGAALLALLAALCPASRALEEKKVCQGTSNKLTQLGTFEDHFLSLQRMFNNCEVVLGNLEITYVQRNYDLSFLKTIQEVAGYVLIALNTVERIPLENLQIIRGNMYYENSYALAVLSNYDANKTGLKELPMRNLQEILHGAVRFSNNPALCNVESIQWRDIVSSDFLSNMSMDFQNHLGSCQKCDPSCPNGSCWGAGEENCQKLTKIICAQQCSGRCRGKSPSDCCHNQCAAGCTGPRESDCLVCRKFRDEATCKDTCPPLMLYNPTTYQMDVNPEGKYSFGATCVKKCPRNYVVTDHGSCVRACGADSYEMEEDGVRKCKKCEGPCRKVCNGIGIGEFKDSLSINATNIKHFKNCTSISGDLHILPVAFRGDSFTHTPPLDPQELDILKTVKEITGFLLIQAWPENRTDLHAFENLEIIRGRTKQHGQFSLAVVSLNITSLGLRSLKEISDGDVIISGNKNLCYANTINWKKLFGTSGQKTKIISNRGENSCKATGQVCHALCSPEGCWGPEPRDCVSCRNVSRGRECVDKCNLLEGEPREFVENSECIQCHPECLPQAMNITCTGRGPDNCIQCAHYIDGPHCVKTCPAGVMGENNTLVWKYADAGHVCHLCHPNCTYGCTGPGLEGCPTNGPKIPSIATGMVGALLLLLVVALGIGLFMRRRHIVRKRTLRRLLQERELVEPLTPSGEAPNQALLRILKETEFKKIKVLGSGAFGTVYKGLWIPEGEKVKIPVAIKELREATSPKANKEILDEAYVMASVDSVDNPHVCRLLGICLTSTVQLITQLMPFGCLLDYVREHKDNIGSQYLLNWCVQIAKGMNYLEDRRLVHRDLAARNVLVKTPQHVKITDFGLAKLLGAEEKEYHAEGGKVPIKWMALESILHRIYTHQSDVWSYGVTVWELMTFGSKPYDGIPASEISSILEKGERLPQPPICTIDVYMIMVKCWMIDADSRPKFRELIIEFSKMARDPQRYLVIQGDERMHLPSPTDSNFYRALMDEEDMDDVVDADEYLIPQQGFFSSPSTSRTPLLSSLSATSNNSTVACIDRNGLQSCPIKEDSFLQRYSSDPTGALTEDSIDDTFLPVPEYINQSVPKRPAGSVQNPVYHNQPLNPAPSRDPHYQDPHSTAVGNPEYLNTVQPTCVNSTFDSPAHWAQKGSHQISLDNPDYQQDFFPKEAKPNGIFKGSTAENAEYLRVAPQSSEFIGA
# Sequence of Ba/F3-EGFR-WT cells (P00533 whole entry, looked up, change not shown): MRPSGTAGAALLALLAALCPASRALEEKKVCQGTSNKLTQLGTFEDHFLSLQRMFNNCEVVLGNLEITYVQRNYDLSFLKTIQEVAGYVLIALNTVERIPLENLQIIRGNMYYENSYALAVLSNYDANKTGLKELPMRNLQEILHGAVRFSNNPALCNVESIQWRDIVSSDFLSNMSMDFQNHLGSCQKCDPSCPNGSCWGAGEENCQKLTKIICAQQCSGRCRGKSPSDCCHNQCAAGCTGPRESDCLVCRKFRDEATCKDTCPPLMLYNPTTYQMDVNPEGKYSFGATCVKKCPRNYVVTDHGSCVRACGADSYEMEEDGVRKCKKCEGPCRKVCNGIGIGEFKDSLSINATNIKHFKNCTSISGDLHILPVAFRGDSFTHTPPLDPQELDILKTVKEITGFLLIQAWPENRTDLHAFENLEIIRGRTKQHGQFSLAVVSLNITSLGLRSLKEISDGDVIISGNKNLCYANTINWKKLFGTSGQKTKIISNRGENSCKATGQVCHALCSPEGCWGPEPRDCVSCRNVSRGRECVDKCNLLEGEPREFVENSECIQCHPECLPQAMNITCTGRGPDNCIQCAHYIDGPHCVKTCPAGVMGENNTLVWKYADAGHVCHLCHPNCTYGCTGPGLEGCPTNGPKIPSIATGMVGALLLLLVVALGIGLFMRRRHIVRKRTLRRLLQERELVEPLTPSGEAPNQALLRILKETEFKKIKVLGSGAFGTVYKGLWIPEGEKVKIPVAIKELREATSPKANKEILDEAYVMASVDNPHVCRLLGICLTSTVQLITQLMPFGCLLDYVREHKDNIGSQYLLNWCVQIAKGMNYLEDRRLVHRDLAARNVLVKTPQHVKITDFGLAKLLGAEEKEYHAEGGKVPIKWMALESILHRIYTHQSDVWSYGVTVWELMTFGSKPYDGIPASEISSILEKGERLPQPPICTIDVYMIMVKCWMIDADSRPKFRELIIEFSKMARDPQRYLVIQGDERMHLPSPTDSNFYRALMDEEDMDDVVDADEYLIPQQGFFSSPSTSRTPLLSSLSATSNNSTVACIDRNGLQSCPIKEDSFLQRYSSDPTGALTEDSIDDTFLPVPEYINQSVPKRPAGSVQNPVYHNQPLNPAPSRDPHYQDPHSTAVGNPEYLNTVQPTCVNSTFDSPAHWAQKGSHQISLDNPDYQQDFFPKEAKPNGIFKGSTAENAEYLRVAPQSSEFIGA
SMILES,mutEGFR (D770_N771insSVD) kinase assay IC50 [1] [nM],"IC50 [2, 5] [nM]",GI50 [3] [nM],GI50 [4] [nM],"IC50 ([2]; read-out: Bub1 high ATP (2 mM) IC50, TR-FRET) [nM]"
"COc1c(Cl)cccc1Nc1c(-c2ccncc2OCC2COC(C)(C)CO2)[nH]c2c1C(=O)NC1(CCC1)C2 (single isomer, unassigned) [Example 131, 3′-(3-chloro-2-methoxyanilino)-2′-{3-[(5,5-dimethyl-1,4-dioxan-2-yl)methoxy]pyridin-4-yl}-1′,7′-dihydrospiro[cyclobutane-1,6′-pyrrolo[3,2-c]pyridin]-4′(5′H)-one]",0.318,1670,48.4,980,
"COc1c(F)cccc1Nc1c(-c2ccncc2OC[C@@H]2CCCO2)[nH]c2c1C(=O)NC(C)C2 (single isomer, unassigned) [Example 9]",0.101,8240,104,644,
"COc1c(Cl)cccc1Nc1c(-c2ccncc2OCC2(C)CCO2)[nH]c2c1C(=O)NCC2CCO (centres unmarked) [Example 19, 3-(3-chloro-2-methoxyanilino)-7-(2-hydroxyethyl)-2-{3-[(2-methyloxetan-2-yl)methoxy]pyridin-4-yl}-1,5,6,7-tetrahydro-4H-pyrrolo[3,2-c]pyridin-4-one]",0.279,13500,86.5,684,
"COc1c(Cl)cccc1Nc1c(-c2ccncc2OCC2OCCCC2(F)F)[nH]c2c1C(=O)N[C@H](C)C2 (single isomer, unassigned) [Example 75]",0.104,11100,18.2,264,
"COCC(C)Oc1cnccc1-c1[nH]c2c(c1Nc1cccc(Cl)c1OC)C(=O)N[C@H](C)C2 (single isomer, unassigned) [Example 43]",0.418,> 20000,219,1860,
"COc1c(Cl)cccc1Nc1c(-c2ccncc2OCC2(C)CCO2)[nH]c2c1C(=O)NCC2CCO (single isomer, unassigned) [Example 20, 3-(3-chloro-2-methoxyanilino)-7-(2-hydroxyethyl)-2-{3-[(2-methyloxetan-2-yl)methoxy]pyridin-4-yl}-1,5,6,7-tetrahydro-4H-pyrrolo[3,2-c]pyridin-4-one]",0.316,17200,122,1170,
"COc1c(Cl)cccc1Nc1c(-c2ccncc2OC[C@@H]2CCCO2)[nH]c2c1C(=O)NCC2CCC(F)(F)F (single isomer, unassigned) [Example 98]",0.525,954,18.1,444,
"COc1c(Cl)cccc1Nc1c(-c2ccncc2OCC2COCCO2)[nH]c2c1C(=O)N[C@@H]1CCC[C@H]21 (mixture of isomers) [Example 52, (5aR,8aS)-3-(3-chloro-2-methoxyanilino)-2-{3-[(1,4-dioxan-2-yl)methoxy]-4-pyridyl}-5,5a,6,7,8,8a-hexahydrocyclopenta[b]pyrrolo[2,3-d]pyridin-4(1)-one]",0.142,10000,38.9,407,
"COc1c(Cl)cccc1Nc1c(-c2ccncc2OCC2COC(C)(C)CO2)[nH]c2c1C(=O)NCC2C (single isomer, unassigned) [Example 96, 3-(3-chloro-2-methoxy-anilino)-2-[3-[(5,5-dimethyl-1,4-dioxan-2-yl)methoxy]-4-pyridyl]-7-methyl-1,5,6,7-tetrahydropyrrolo[3,2-c]pyridin-4-one]",0.985,,381,3430,> 20000
"COc1c(Cl)cccc1Nc1c(-c2ccncc2OC[C@@H]2CN(C)CCO2)[nH]c2c1C(=O)N[C@@H]1CCC[C@H]21 [Example 64, (5aR,8aS)-3-(3-chloro-2-methoxyanilino)-2-(3-{[(2S)-4-methylmorpholin-2-yl]methoxy}pyridin-4-yl)-5,5a,6,7,8,8a-hexahydrocyclopenta[b]pyrrolo[2,3-d]pyridin-4(1H)-one]",0.361,> 20000,47.6,643,
"COc1c(Cl)cccc1Nc1c(-c2ccncc2OCC2CCCCO2)[nH]c2c1C(=O)N[C@H](C)C2 (single isomer, unassigned) [Example 29]",0.176,2390,11,288,
"COc1c(Cl)cccc1Nc1c(-c2ccncc2OCC2COCCO2)[nH]c2c1C(=O)N[C@H](C)C2 (single isomer, unassigned) [Example 26]",0.242,3110,63.1,587,
"COc1c(F)cccc1Nc1c(-c2ccncc2OC[C@@H]2CCCO2)[nH]c2c1C(=O)NC(C)C2 (single isomer, unassigned) [Example 10]",0.0957,> 20000,31.7,382,
"COc1c(Cl)cccc1Nc1c(-c2ccncc2OCC2COC(C)(C)CO2)[nH]c2c1C(=O)NCC2C (single isomer, unassigned) [Example 94, 3-(3-chloro-2-methoxy-anilino)-2-{3-[(5,5-dimethyl-1,4-dioxan-2-yl)methoxy]-4-pyridyl}-7-methyl-1,5,6,7-tetrahydropyrrolo[3,2-c]pyridin-4-one]",0.631,> 20000,66.6,1080,
"COc1c(Cl)cccc1Nc1c(-c2ccncc2OCC2COC(C)(C)CO2)[nH]c2c1C(=O)N[C@H](C)C2 (single isomer, unassigned) [Example 78]",0.26,> 20000,20.7,488,
"COc1c(Cl)cccc1Nc1c(-c2ccncc2OC[C@@H]2CCO2)[nH]c2c1C(=O)N[C@H](C)C2 [Example 6, (6R)-3-(3-chloro-2-methoxyanilino)-6-methyl-2-(3-{[(2S)-oxetan-2-yl]methoxy}pyridin-4-yl)-1,5,6,7-tetrahydro-4H-pyrrolo[3,2-c]pyridin-4-one]",0.217,10200,86.4,623,
"COCC(C)Oc1cnccc1-c1[nH]c2c(c1Nc1cccc(Cl)c1OC)C(=O)N[C@@H]1CCC[C@H]21 (stereo partly drawn) [Example 49, (5aR,8aS)-3-(3-chloro-2-methoxyanilino)-2-{3-[(1-methoxypropan-2-yl)oxy]-4-pyridyl}-5,5a,6,7,8,8a-hexahydrocyclopenta[b]pyrrolo[2,3-d]pyridin-4(1)-one]",0.275,13200,33.1,291,
"COc1c(Cl)cccc1Nc1c(-c2ccncc2OCCC(C)OC)[nH]c2c1C(=O)N[C@H](C)C2 (single isomer, unassigned) [Example 122]",0.122,741,23.8,506,
"COc1c(Cl)cccc1Nc1c(-c2ccncc2OC[C@@H]2CCCO2)[nH]c2c1C(=O)NCC2CCO (single isomer, unassigned) [Example 17]",0.238,> 20000,230,1580,
"COc1c(Cl)cccc1Nc1c(-c2ccncc2OCC2COCCO2)[nH]c2c1C(=O)N[C@H](C)C2 (single isomer, unassigned) [Example 25]",0.141,5410,25.9,358,
